These results are taken from patent publication US20230106032A1, “IMIDAZOTRIAZINES ACTING ON CANCER VIA INHIBITION OF CDK12” (Bayer Aktiengesellschaft, priority 2020, published 2023).

Molecules are shown by their SMILES.

The test has as its target T1, CDK12 (Homo sapiens, UniProt Q9NYV4).
T1 construct: endogenous in cells; host or cells: CAL-120 human breast cancer cells (DSMZ ACC 459)
Briefly: CDK12 protein level in CAL-120 cells (Protein Simple). Type of test: cell-based. The conditions noted are these: 18 h, CDK12/HSP90 peak area ratio, read-out: CDK12 protein level in CAL-120 breast ca cells DC50-[mol/l] (median). As for the experimental part:
CAL-120 human breast cancer cells (DSMZ ACC 459) were seeded at 300,000 cells/well in 6-well plates containing 2 mL of growth medium (DMEM, 10% FCS, glutamine) and incubated for 24 h at 37° C. in an humidified incubator. Test compounds were added at various concentrations, control wells received solvent (DMSO), and the plates were incubated for another 18 h at 37° C. Cells were washed 2 times with PBS and lysed in 75 microL lysis buffer (MSD-Puffer (MSD, #R^60TX-2), +1% SDS+PhosSTOP (Roche #04906837001)+ complete mini (Roche #04693159001)) by scraping. The lysates were pushed 2 times through Qiashedders followed by centrifugation at 14,000 rpm for 30-50 sec. The supernatant was stored at −20° C. […] CDK12 and HSP90 (loading control) were detected using anti-human CDK12 antibody (Cell Signaling Technologies (CST) #11793) at 1:25 dilution and anti-human HSP90 antibody (CST #4877) at 1:5,000 dilution. CDK12 and HSP90 peak areas were determined using Protein Simple Compass software. Ratio of CDK12/HSP90 peak areas were calculated for each sample, and DC50 values (degrading concentration to achieve 50% reduction relative to vehicle treated control) were determined by means of a 4 parameter fit.

T1 sequence (Q9NYV4 whole entry): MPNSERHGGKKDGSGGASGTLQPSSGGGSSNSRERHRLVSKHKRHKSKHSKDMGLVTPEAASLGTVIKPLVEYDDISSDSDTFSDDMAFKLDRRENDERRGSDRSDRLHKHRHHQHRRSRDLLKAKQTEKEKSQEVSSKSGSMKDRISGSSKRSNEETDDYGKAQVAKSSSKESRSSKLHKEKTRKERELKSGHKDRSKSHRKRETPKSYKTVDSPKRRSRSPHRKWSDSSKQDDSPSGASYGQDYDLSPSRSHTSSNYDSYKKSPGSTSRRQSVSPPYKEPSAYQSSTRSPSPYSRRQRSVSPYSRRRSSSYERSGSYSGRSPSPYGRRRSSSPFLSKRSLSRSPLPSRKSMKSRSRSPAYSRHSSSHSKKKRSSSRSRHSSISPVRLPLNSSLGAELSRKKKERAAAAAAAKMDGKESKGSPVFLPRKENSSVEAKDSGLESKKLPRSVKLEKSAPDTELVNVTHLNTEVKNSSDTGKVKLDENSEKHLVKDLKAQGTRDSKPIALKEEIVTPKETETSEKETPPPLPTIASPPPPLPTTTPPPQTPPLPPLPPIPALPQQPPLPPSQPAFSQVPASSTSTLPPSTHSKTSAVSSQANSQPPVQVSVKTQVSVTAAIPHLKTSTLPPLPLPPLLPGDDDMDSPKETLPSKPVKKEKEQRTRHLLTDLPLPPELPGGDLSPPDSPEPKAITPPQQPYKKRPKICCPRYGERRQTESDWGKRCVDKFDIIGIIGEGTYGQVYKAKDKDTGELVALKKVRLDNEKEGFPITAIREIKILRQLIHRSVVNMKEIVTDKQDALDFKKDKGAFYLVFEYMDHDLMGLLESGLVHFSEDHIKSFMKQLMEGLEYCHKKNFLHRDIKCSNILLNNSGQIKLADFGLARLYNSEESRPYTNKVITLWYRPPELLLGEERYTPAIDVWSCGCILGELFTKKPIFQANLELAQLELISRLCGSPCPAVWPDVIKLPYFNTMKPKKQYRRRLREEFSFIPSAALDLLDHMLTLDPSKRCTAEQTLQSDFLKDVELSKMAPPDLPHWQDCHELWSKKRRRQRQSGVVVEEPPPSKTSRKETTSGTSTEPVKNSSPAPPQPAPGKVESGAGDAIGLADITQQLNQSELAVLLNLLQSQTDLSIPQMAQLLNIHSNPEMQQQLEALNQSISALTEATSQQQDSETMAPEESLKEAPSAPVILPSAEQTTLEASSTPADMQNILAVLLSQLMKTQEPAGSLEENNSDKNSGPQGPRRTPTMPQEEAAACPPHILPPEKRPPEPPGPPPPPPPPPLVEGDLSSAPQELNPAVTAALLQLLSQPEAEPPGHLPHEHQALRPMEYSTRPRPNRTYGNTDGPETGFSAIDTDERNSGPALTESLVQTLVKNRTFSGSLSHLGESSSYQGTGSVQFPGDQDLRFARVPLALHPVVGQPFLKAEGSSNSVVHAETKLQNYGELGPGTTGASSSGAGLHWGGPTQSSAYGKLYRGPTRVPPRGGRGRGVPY
T1 sequence (O75909 whole entry partner): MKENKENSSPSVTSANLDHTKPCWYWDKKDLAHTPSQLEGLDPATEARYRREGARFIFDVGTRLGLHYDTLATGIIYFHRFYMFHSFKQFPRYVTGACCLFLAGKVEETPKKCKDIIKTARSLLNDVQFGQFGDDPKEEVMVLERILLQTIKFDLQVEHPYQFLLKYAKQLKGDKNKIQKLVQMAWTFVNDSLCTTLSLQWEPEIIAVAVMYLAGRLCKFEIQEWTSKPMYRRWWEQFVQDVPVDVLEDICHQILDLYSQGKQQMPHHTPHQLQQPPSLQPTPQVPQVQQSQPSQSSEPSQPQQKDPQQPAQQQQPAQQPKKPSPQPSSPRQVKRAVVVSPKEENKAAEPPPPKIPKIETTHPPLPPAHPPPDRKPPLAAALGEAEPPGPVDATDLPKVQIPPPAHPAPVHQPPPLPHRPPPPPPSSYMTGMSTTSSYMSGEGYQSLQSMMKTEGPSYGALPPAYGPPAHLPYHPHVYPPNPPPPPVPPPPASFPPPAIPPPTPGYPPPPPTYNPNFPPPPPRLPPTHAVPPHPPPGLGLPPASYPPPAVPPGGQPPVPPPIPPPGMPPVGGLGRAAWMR

As for `N#Cc1cnc2c(NCc3nc4ccccc4[nH]3)nc(N3CCOCC3)nn12` [Example 2, 4-{[(1H-benzimidazol-2-yl)methyl]amino}-2-(morpholin-4-yl)imidazo[2,1-f][1,2,4]triazine-7-carbonitrile], the DC50 was 5.81 nM. As for `Brc1cnc2c(NCc3nc4ccccc4[nH]3)nc(N3CCOCC3)nn12` [Example 1, N-[(1H-benzimidazol-2-yl)methyl]-7-bromo-2-(morpholin-4-yl)imidazo[2,1-f][1,2,4]triazin-4-amine], the DC50 is < 3 nM.
